Assay results published in US10770169B2, “Method of providing a treatment to a subject based on a dynamic pathway map” (THE REGENTS OF THE UNIVERSITY OF CALIFORNIA, priority 2010, dated 2020).
Like-named read-outs stand apart in the source and are kept apart here.

Key:
[1] = test system: panel of 55 breast cancer cell lines; test: Cell growth inhibition assay (Cell Titer Glo, 72 h, 9 doses; GI50, TGI, LC50); assay type: cell-based, human; settings: Homo sapiens, read-out: GI50 (converted)
[2] = test system: luminal, basal, claudin-low and ERBB2AMP breast cancer cell lines; test: Associations of clinically relevant subtypes and response (non-parametric ANOVA or t-test on GI50 ranks); assay type: cell-based, human; settings: Table 6; most sensitive subtype, FDR p<0.20
Procedure, shortened: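 GI50 values were compared between cell-line subtype groups by non-parametric ANOVA or t-test on ranks. P-values from three test sets were combined and FDR-corrected. Significant three-group effects were followed by post-hoc comparison of each group against all others, and FDR p<0.20 counted as significant.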

**Q.** CO[C@H]1C[C@@H]2CC[C@@H](C)[C@@](O)(O2)C(=O)C(=O)N2CCCC[C@H]2C(=O)O[C@H]([C@H](C)C[C@@H]2CC[C@@H](OC(=O)C(C)(CO)CO)[C@H](OC)C2)CC(=O)[C@H](C)/C=C(\C)[C@@H](O)[C@@H](OC)C(=O)[C@H](C)C[C@H](C)/C=C/C=C/C=C/1C [Temsirolimus] was tested. Which GI50 ([1]; 600MPE cell line, censored GI50 values) did it give?
**A.** The GI50 was 18200 nM.

**Q.** And the GI50 ([1]; AU565, AU565 cell line, censored GI50 values)?
**A.** Its GI50 is 100 nM.

**Q.** What about the GI50 ([1]; AU565, cell line AU565) of the same compound?
**A.** Its GI50 is 100 nM.

**Q.** What about the GI50 ([1]; BT-20, BT20 cell line, censored GI50 values) of the same compound?
**A.** Its GI50 is 776 nM.

**Q.** And the GI50 ([1]; BT-20, cell line BT20)?
**A.** The GI50 was 776 nM.

**Q.** What about the GI50 ([1]; BT-474, BT474 cell line, censored GI50 values) of the same compound?
**A.** The GI50 was 13.5 nM.

**Q.** And the GI50 ([1]; BT-474, cell line BT474)?
**A.** Its GI50 is 13.5 nM.

**Q.** What about the GI50 ([1]; BT-483, BT483 cell line, censored GI50 values) of the same compound?
**A.** Its GI50 is 66100 nM.

**Q.** And the GI50 ([1]; BT-483, cell line BT483)?
**A.** The GI50 was 66100 nM.

**Q.** What about the GI50 ([1]; CAMA-1, CAMA1 cell line, censored GI50 values) of the same compound?
**A.** Its GI50 is 43.7 nM.

**Q.** And the GI50 ([1]; CAMA-1, cell line CAMA1)?
**A.** Its GI50 is 43.7 nM.

**Q.** What about the GI50 ([1]; HCC38, HCC38 cell line, censored GI50 values) of the same compound?
**A.** The GI50 was 389 nM.

**Q.** What about the GI50 ([1]; HCC38, cell line HCC38) of the same compound?
**A.** Its GI50 is 389 nM.

**Q.** And the GI50 ([1]; HCC70, HCC70 cell line, censored GI50 values)?
**A.** The GI50 was 407 nM.

**Q.** And the GI50 ([1]; HCC70, cell line HCC70)?
**A.** The GI50 was 407 nM.

**Q.** What about the GI50 ([1]; HCC1143, HCC1143 cell line, censored GI50 values) of the same compound?
**A.** The GI50 was 1580 nM.

**Q.** What about the GI50 ([1]; HCC1143, cell line HCC1143) of the same compound?
**A.** Its GI50 is 1580 nM.

**Q.** What about the GI50 ([1]; HCC1187, HCC1187 cell line, censored GI50 values) of the same compound?
**A.** The GI50 was 794 nM.

**Q.** And the GI50 ([1]; HCC1187, cell line HCC1187)?
**A.** The GI50 was 794 nM.

**Q.** And the GI50 ([1]; HCC1395, HCC1395 cell line, censored GI50 values)?
**A.** Its GI50 is 12600 nM.

**Q.** What about the GI50 ([1]; HCC1395, cell line HCC1395) of the same compound?
**A.** Its GI50 is 12600 nM.

**Q.** What about the GI50 ([1]; HCC1419, HCC1419 cell line, censored GI50 values) of the same compound?
**A.** Its GI50 is 52.5 nM.

**Q.** What about the GI50 ([1]; HCC1419, cell line HCC1419) of the same compound?
**A.** The GI50 was 52.5 nM.

**Q.** And the GI50 ([1]; HCC1428, HCC1428 cell line, censored GI50 values)?
**A.** Its GI50 is 6170 nM.

**Q.** What about the GI50 ([1]; HCC1428, cell line HCC1428) of the same compound?
**A.** Its GI50 is 6170 nM.

**Q.** And the GI50 ([1]; HCC1500, HCC1500 cell line, censored GI50 values)?
**A.** Its GI50 is 24500 nM.

**Q.** And the GI50 ([1]; HCC1500, cell line HCC1500)?
**A.** The GI50 was 24500 nM.

**Q.** What about the GI50 ([1]; HCC1806, HCC1806 cell line, censored GI50 values) of the same compound?
**A.** Its GI50 is 20400 nM.

**Q.** What about the GI50 ([1]; HCC1806, cell line HCC1806) of the same compound?
**A.** Its GI50 is 20400 nM.

**Q.** And the GI50 ([1]; HCC1937, HCC1937 cell line, censored GI50 values)?
**A.** The GI50 was 437 nM.

**Q.** What about the GI50 ([1]; HCC1937, cell line HCC1937) of the same compound?
**A.** The GI50 was 437 nM.

**Q.** And the GI50 ([1]; HCC1954, HCC1954 cell line, censored GI50 values)?
**A.** Its GI50 is 219 nM.

**Q.** What about the GI50 ([1]; HCC1954, cell line HCC1954) of the same compound?
**A.** The GI50 was 219 nM.

**Q.** What about the GI50 ([1]; HCC2185 cell line, censored GI50 values) of the same compound?
**A.** Its GI50 is 13.2 nM.

**Q.** What about the GI50 ([1]; HCC3153 cell line, censored GI50 values) of the same compound?
**A.** The GI50 was 20000 nM.

**Q.** What about the GI50 ([1]; LY2 cell line, censored GI50 values) of the same compound?
**A.** Its GI50 is 209 nM.

**Q.** What about the GI50 ([1]; MCF7, MCF7 cell line, censored GI50 values) of the same compound?
**A.** The GI50 was 1550 nM.

**Q.** What about the GI50 ([1]; MCF7, cell line MCF7) of the same compound?
**A.** Its GI50 is 1550 nM.

**Q.** What about the GI50 ([1]; MDA-MB-134-VI, MDAMB134VI cell line, censored GI50 values) of the same compound?
**A.** Its GI50 is 166 nM.

**Q.** And the GI50 ([1]; MDA-MB-175-VII, MDAMB175VII cell line, censored GI50 values)?
**A.** The GI50 was 2290 nM.

**Q.** What about the GI50 ([1]; MDA-MB-361, MDAMB361 cell line, censored GI50 values) of the same compound?
**A.** Its GI50 is 251 nM.

**Q.** And the GI50 ([1]; MDA-MB-415, MDAMB415 cell line, censored GI50 values)?
**A.** Its GI50 is 75.9 nM.

**Q.** What about the GI50 ([1]; MDA-MB-436, MDAMB436 cell line, censored GI50 values) of the same compound?
**A.** The GI50 was 53700 nM.

**Q.** What about the GI50 ([1]; MDA-MB-453, MDAMB453 cell line, censored GI50 values) of the same compound?
**A.** Its GI50 is 100 nM.

**Q.** What about the GI50 ([1]; MDA-MB-468, MDAMB468 cell line, censored GI50 values) of the same compound?
**A.** Its GI50 is 5620 nM.

**Q.** And the GI50 ([1]; SK-BR-3, SKBR3 cell line, censored GI50 values)?
**A.** The GI50 was 53.7 nM.

**Q.** And the GI50 ([1]; SUM52PE, SUM52PE cell line, censored GI50 values)?
**A.** Its GI50 is 0.417 nM.

**Q.** And the GI50 ([1]; SUM149PT, SUM149PT cell line, censored GI50 values)?
**A.** Its GI50 is 6170 nM.

**Q.** And the GI50 ([1]; SUM185PE, SUM185PE cell line, censored GI50 values)?
**A.** Its GI50 is 1.1 nM.

**Q.** And the GI50 ([1]; SUM1315MO2, SUM1315MO2 cell line, censored GI50 values)?
**A.** Its GI50 is 1120 nM.

**Q.** And the GI50 ([1]; SUM-159-PT, SUM159PT cell line, censored GI50 values)?
**A.** The GI50 was 229 nM.

**Q.** And the GI50 ([1]; T47D, T47D cell line, censored GI50 values)?
**A.** Its GI50 is 1410 nM.

**Q.** And the GI50 ([1]; UACC-812, UACC812 cell line, censored GI50 values)?
**A.** The GI50 was 575 nM.

**Q.** What about the GI50 ([1]; ZR-75-1, ZR751 cell line, censored GI50 values) of the same compound?
**A.** The GI50 was 66100 nM.

**Q.** What about the GI50 ([1]; ZR-75B, ZR75B cell line, censored GI50 values) of the same compound?
**A.** Its GI50 is 107 nM.

**Q.** And the GI50 ([1]; cell line 600MPE)?
**A.** The GI50 was 18200 nM.

**Q.** What about the GI50 ([1]; cell line HCC2185) of the same compound?
**A.** Its GI50 is 13.2 nM.

**Q.** And the GI50 ([1]; cell line HCC3153)?
**A.** Its GI50 is 20000 nM.

**Q.** What about the GI50 ([1]; cell line LY2) of the same compound?
**A.** The GI50 was 209 nM.

**Q.** What about the Subtype specificity [2] of the same compound?
**A.** Its Subtype specificity is “Luminal/ERBB2AMP”.
